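All cell lines were grown in 96-well plates and treated with compound for 48 hours. Here, GI50 denotes the concentration required for 50% inhibition of growth.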 The source made the active and inactive calls. Cut-off read from the data, not from the text of the source: active = GI50 up to about 1.1 µM and inactive = higher.
Columns and labels:
Assay in all cases: inhibition of tumour cell growth, NCI panel, 48 h
SK-MEL-28 = tested on: SK-MEL-28
SF-295 = tested on: SF-295
UACC-62 = tested on: UACC-62
IGROV-1 = tested on: IGROV-1
UO-31 = tested on: UO-31
MDA-MB-435 = tested on: MDA-MB-435
KM12 = tested on: KM12
MDA-MB-231 = tested on: MDA-MB-231
HCT-116 = tested on: HCT-116
MCF7 = tested on: MCF7
TK-10 = tested on: TK-10
OVCAR-8 = tested on: OVCAR-8
LOX IMVI = tested on: LOX IMVI
A498 = tested on: A498
Malme-3M = tested on: Malme-3M
SNB-75 = tested on: SNB-75
DU-145 = tested on: DU-145
SK-MEL-5 = tested on: SK-MEL-5
MOLT-4 = tested on: MOLT-4
HT-29 = tested on: HT-29
T47D = tested on: T47D
HOP-92 = tested on: HOP-92
M14 = tested on: M14
HCC 2998 = tested on: HCC 2998
NCI-H226 = tested on: NCI-H226
COLO 205 = tested on: COLO 205
HCT-15 = tested on: HCT-15
NCI-H460 = tested on: NCI-H460
NCI/ADR-RES = tested on: NCI/ADR-RES
K562 = tested on: K562
CAKI-1 = tested on: CAKI-1
SK-OV-3 = tested on: SK-OV-3
NCI-H23 = tested on: NCI-H23
SNB-19 = tested on: SNB-19
SF-268 = tested on: SF-268
U-251 = tested on: U-251
A549 = tested on: A549
SN12C = tested on: SN12C
EKVX = tested on: EKVX
UACC-257 = tested on: UACC-257
PC-3 = tested on: PC-3
RXF 393 = tested on: RXF 393
ACHN = tested on: ACHN
OVCAR-4 = tested on: OVCAR-4
786-0 = tested on: 786-0
Hs-578T = tested on: Hs-578T
MDA-N = tested on: MDA-N
RPMI-8226 = tested on: RPMI-8226
SW-620 = tested on: SW-620
CCRF-CEM = tested on: CCRF-CEM

In the case of `OCC1NC(CO)C(O)C1O` (stereo unspecified), the GI50 (SK-MEL-28) is reported as > 100 µM (inactive), the GI50 (SF-295) is reported as > 100 µM (inactive) and the GI50 (UACC-62) is reported as > 100 µM (inactive). The GI50 (IGROV-1) was > 100 µM (inactive), the GI50 (UO-31) was > 100 µM (inactive) and the GI50 (MDA-MB-435) was > 100 µM (inactive). For the same compound, the GI50 (KM12) was > 100 µM (inactive), the GI50 (MDA-MB-231) was > 100 µM (inactive) and the GI50 (HCT-116) was > 100 µM (inactive). The GI50 (MCF7) was > 100 µM (inactive), the GI50 (TK-10) was > 100 µM (inactive) and the GI50 (OVCAR-8) was > 100 µM (inactive). The GI50 (LOX IMVI) was > 100 µM (inactive), the GI50 (A498) was > 100 µM (inactive) and the GI50 (Malme-3M) was > 100 µM (inactive). For the same compound, the GI50 (SNB-75) was > 100 µM (inactive), the GI50 (DU-145) was > 100 µM (inactive) and the GI50 (SK-MEL-5) was > 100 µM (inactive). The GI50 (MOLT-4) was > 100 µM (inactive), the GI50 (HT-29) was > 100 µM (inactive) and the GI50 (T47D) was > 100 µM (inactive). The GI50 (HOP-92) was > 100 µM (inactive), the GI50 (M14) was > 100 µM (inactive) and the GI50 (HCC 2998) was > 100 µM (inactive). The GI50 (NCI-H226) was > 100 µM (inactive), the GI50 (COLO 205) was > 100 µM (inactive) and the GI50 (HCT-15) was > 100 µM. The GI50 (NCI-H460) was > 100 µM (inactive), the GI50 (NCI/ADR-RES) was > 100 µM (inactive) and the GI50 (K562) was > 100 µM (inactive). For the same compound, the GI50 (CAKI-1) was > 100 µM (inactive), the GI50 (SK-OV-3) was > 100 µM (inactive) and the GI50 (NCI-H23) was > 100 µM (inactive).
In the case of `COc1ccc2c(ccc3c(C(=O)NCCCN(C)CCCNC(=O)c4cn(C)c5c4ccc4cc(OC)ccc45)cn(C)c32)c1`, the GI50 (SK-MEL-28) is reported as 1.77 µM (inactive), the GI50 (SNB-19) is reported as 1.79 µM (inactive) and the GI50 (SF-295) is reported as 2.15 µM (inactive). For the same compound, the GI50 (UACC-62) was 1.77 µM (inactive), the GI50 (IGROV-1) was 1.53 µM (inactive) and the GI50 (UO-31) was 1.66 µM (inactive). The GI50 (SF-268) was 1.78 µM (inactive), the GI50 (MDA-MB-435) was 1.89 µM (inactive) and the GI50 (KM12) was 1.56 µM (inactive). The GI50 (U-251) was 1.92 µM (inactive), the GI50 (HCT-116) was 1.73 µM (inactive) and the GI50 (LOX IMVI) was 2.26 µM (inactive). The GI50 (A498) was 28.6 µM (inactive), the GI50 (A549) was 1.43 µM (inactive) and the GI50 (SN12C) was 1.57 µM (inactive). For the same compound, the GI50 (EKVX) was 1.57 µM (inactive), the GI50 (DU-145) was 1.67 µM (inactive) and the GI50 (UACC-257) was 1.57 µM (inactive). For the same compound, the GI50 (SK-MEL-5) was 1.9 µM (inactive), the GI50 (PC-3) was 1.55 µM (inactive) and the GI50 (RXF 393) was 2.12 µM (inactive). For the same compound, the GI50 (ACHN) was 1.66 µM (inactive), the GI50 (MOLT-4) was 2.23 µM (inactive) and the GI50 (M14) was 1.59 µM (inactive). The GI50 (OVCAR-4) was 1.71 µM (inactive), the GI50 (786-0) was 1.49 µM (inactive) and the GI50 (HCC 2998) was 1.61 µM (inactive). For the same compound, the GI50 (Hs-578T) was 2.33 µM (inactive), the GI50 (COLO 205) was 2.11 µM (inactive) and the GI50 (HCT-15) was 1.32 µM. The GI50 (MDA-N) was 1.53 µM (inactive), the GI50 (NCI-H460) was 1.47 µM (inactive) and the GI50 (K562) was 0.403 µM (active). The GI50 (RPMI-8226) was 2.35 µM (inactive), the GI50 (SW-620) was 1.83 µM (inactive) and the GI50 (CAKI-1) was 1.64 µM (inactive). For the same compound, the GI50 (NCI-H23) was 1.58 µM (inactive) and the GI50 (CCRF-CEM) was 1.07 µM (active).

— ChEMBL document CHEMBL1201862, “PubChem BioAssay data set” (2004)
